# Experiments:
# Assay type in all cases: cell-based
# [1] = system: HCT8 human colon cancer cell line; test: Trypan blue apoptosis with overexpressed mutant LIG4 (G833A or T1704C); conditions: HCT8 overexpressing LIG4 mutant G833A or T1704C vs control group (empty); 25 μM and 50 μM, 48 hours
# From the text: In order to analyze the degree of apoptosis of Compound A, which is a novel PARP/Tankyrase simultaneous inhibitor, when the p53 genotype is a normal type and an LIG4 genotype is a mutant type, the present inventors treated a novel PARP/Tankyrase simultaneous inhibitor, Compound A, and the competitive drug PARP inhibitor, olaparib, while overexpressing an LIG4 mutant type in the HCT8 human colon cancer cell line in which the p53 gene is a normal type and an LIG4 genotype is a normal type. Then, the number of cells was measured by trypan blue staining assay to confirm the degree of apoptosis. […] After 48 hours of culturing, the number of cells was measured by trypan blue staining and the degree of apoptosis was confirmed.
# The present inventors conducted an experiment in the same manner as Example 9 to analyze the degree of apoptosis and DNA damage of Compound A, which is a novel PARP/Tankyrase simultaneous inhibitor, when the p53 genotype is a mutant type and an LIG4 genotype is a mutant type. The number of cells was measured by trypan blue staining method and the degree of apoptosis was confirmed. […] It was washed with TBS-T buffer three times for 15 minutes to induce luminescence of PDVF membrane using ECL buffer solution to develop protein expression on each anti-body using an X-ray film.
# [2] = system: SW620 human colon cancer cell line; test: as above; conditions: SW620 overexpressing LIG4 mutant G833A or T1704C vs control group (empty); 25 μM and 50 μM, 48 hours
# From the text: In order to analyze the degree of apoptosis of Compound A, which is a novel PARP/Tankyrase simultaneous inhibitor, when the p53 genotype is a mutant type and an LIG4 genotype is a mutant type, the present inventors treated a novel PARP/Tankyrase simultaneous inhibitor, Compound A, and the competitive drug PARP inhibitor, olaparib, while overexpressing an LIG4 mutant type in the SW620 human colon cancer cell line in which the p53 gene is a mutant type and an LIG4 genotype is a normal type. Then, the number of cells was measured by trypan blue staining assay to confirm the degree of apoptosis. The conditions and methods of the above experiment were as follows: SW620 human colon cancer cell line in which the p53 gene is a mutant type and the LIG4 gene is a normal type was cultured in RPMI1640 (10% FBS, 1% penicillin/streptomycin) and cultured in a 60 mm plate at 1×10^5 per well for 24 hours at 37° C. G833A or T1704C plasmid DNA in which an LIG4 genotype is a mutant type was infused into cells by means of Lipofectamin 2000 (Invitrogen), and then overexpressed at 37° C. for 48 hours. Then, the cells were treated with each of 25 μM and 50 μM of Compound A, which is a novel PARP/Tankyrase simultaneous inhibitor and olaparib, a competitive drug PARP inhibitor. After 48 hours of culturing, the number of cells was measured by trypan blue staining and the degree of apoptosis was confirmed.
# [3] = system: HCT116 human colon cancer cell line; test: Western blot of r-H2AX and cleaved caspase 3; conditions: 50 μM, 48 hours
# From the text: (§1) In order to analyze the degree of DNA damage and the degree of apoptosis of Compound A, which is a novel PARP/Tankyrase simultaneous inhibitor, when the p53 gene is a normal type and the LIG4 gene is a mutant type, the present inventors treated a novel PARP/Tankyrase simultaneous inhibitor, Compound A, and the competitive drug PARP inhibitor; olaparib, in the HCT116 human colon cancer cell line in which the p53 gene and an LIG4 gene are normal types and in the RKO human colon cancer cell line in which the p53 gene is a normal type and an LIG4 gene is a mutant type, and then confirmed the DNA damage with the expression level of r-H2Ax by western blotting method and confirmed the degree of apoptosis with the expression level of cleaved caspase 3. The conditions and method of the experiment were as follows: The HCT116 human colon cancer cell line in which the p53 gene and an LIG4 gene are normal types and the RKO human colon cancer cell line in which the p53 gene is a normal type and an LIG4 gene is a mutant type were cultured in RPMI1640 (10% FBS, 1% penicillin/streptomycin) and cultured in a 60 mm plate at 1×10^5 per well for 24 hours at 37° C. Compound A, which is a novel PARP/Tankyrase simultaneous inhibitor, and olaparib, which is a competitive drug PARP inhibitor, were treated with 50 μM each and were cultured for 48 hours. Then, the cells were obtained using a centrifuge. Each cell thus obtained was dissolved using an RIPA buffer, and the proteins were extracted using a high-speed centrifuge. 30 μg protein per cell was electrophoresed by western blot method to separate proteins and transferred to PDVF membrane. The r-H2AX, truncated caspase 3, and b-actin antibody were diluted with each 1:2000 in 5% skim milk. Then, the cells were reacted at 4° C. for 12 hours and then washed three times for 15 minutes with TBS-T buffer. The secondary antibody was diluted with each 1:2000 ratio in 5% skim milk and reacted at room temperature for 2 hours. It was washed with TBS-T buffer three times for 15 minutes to induce luminescence of PDVF membrane using ECL (Enhanced Chemiluminescence) buffer solution to develop protein expression on each anti-body using an X-ray film.
# [4] = system: RKO human colon cancer cell line; test: Western blot of r-H2AX and cleaved caspase 3; conditions: 50 μM, 48 hours
# From the text: as §1
# [5] = system: HCT8 human colon cancer cell line; test: Western blot of r-H2AX and truncated caspase 3 with overexpressed mutant LIG4; conditions: HCT8 overexpressing LIG4 mutant G833A or T1704C
# Description: The present inventors conducted an experiment in the same manner as Example 9 to analyze the degree of apoptosis and DNA damage of Compound A, which is a novel PARP/Tankyrase simultaneous inhibitor, when the p53 genotype is a mutant type and an LIG4 genotype is a mutant type. The number of cells was measured by trypan blue staining method and the degree of apoptosis was confirmed. The cells were obtained using a centrifuge. Each cell thus obtained was dissolved using an RIPA buffer, and the proteins were extracted using a high-speed centrifuge. 30 μg protein per cell was electrophoresed by western blot method to separate proteins and transferred to PDVF membrane. The r-H2AX, truncated caspase 3, and b-actin antibody were diluted with each 1:2000 ratio in 5% skim milk. Then, the cells were reacted at 4° C. for 12 hours and then washed three times for 15 minutes with TBS-T buffer. The secondary antibody was diluted with each 1:2000 ratio in 5% skim milk and reacted at room temperature for 2 hours. It was washed with TBS-T buffer three times for 15 minutes to induce luminescence of PDVF membrane using ECL buffer solution to develop protein expression on each anti-body using an X-ray film.
compound,measurement,setting,value
"CCOc1cc(CN(C)C)cc2[nH]c(=O)c3c(c12)NCCC3 [Compound A, 8-[(dimethylamino)methyl]-10-ethoxy-1,2,3,4-tetrahydrobenzo[h][1,6]naphthyridin-5(6H)-one]",degree of apoptosis (trypan blue cell count),[1],apoptosis was increased
same,degree of apoptosis (trypan blue cell count),[2],no change in the apoptosis
same,expression amount of truncated caspase 3 (western blot),[3],increased expression amount of the truncated caspase 3
same,expression of r-H2AX (western blot),[3],increased expression of r-H2AX than the group treated with olaparib
same,expression amount of truncated caspase 3 (western blot),[4],increased expression amount of the truncated caspase 3
same,expression of r-H2AX (western blot),[4],increased expression of r-H2AX than the group treated with olaparib
same,expression amount of truncated caspase 3 (western blot),[5],also increased
same,expression of r-H2AX (western blot),[5],also increased

# Reference: patent US10683553B2, “Method for determining sensitivity to simultaneous inhibitor against PARP and Tankyrase” (THE ASAN FOUNDATION, priority 2015, dated 2020)
